Literature values in patent US20220288054A1, “COMPOSITIONS AND METHODS TO TREAT NON-ALCOHOLIC FATTY LIVER DISEASES (NAFLD)” (Coherus Biosciences, Inc., priority 2019, published 2022).

Key:
[1] = monotherapy, STELLAR-4 phase 3
[2] = test system: mouse adipocytes
[3] = test system: diabetic rodents; conditions: administered to diabetic rodents

## Cc1cc(F)c(C(=O)Nc2cccc(-c3nncn3C(C)C)n2)cc1-n1cnc(C2CC2)c1 [selonsertib]
[1]
  primary endpoint: failed to meet the primary endpoint

## CCCCOCCOc1ccc(-c2ccc3c(c2)/C=C(/C(=O)Nc2ccc([S@@+]([O-])Cc4cncn4CCC)cc2)CCCN3CC(C)C)cc1 [Cenicriviroc]
289 patients, 1 year of therapy
  safety profile: excellent safety profile
289 patients, after 1 year of therapy
  liver fibrosis improvement: consistently demonstrated liver fibrosis improvement
Adult patients with NASH and fibrosis, phase 2b
  antifibrotic activity: provided antifibrotic activity
Adult patients, oral, phase 2b
  tolerability: well-tolerated

B1: FGF21: amino acid sequence shown in FIG. 3 (SEQ ID NO: 3) (protein, listed as Homo sapiens)
chain: MDSDETGFEHSGLWVSVLAGLLLGACQAHPIPDSSPLLQFGGQVRQRYLYTDDAQQTEAHLEIREDGTVGGAADQSPESLLQLKALKPGVIQILGVKTSRFLCQRPDGALYGSLHFDPEACSFRELLLEDGYNVYQSEAHGLPLHLPGNKSPHRDPAPRGPARFLPLPGLPPALPEPPGILAPQPPDVGSSDPLSMVGPSQGRSPSYAS
[2]
  glucose uptake: activates glucose uptake
[3]
  blood glucose and triglyceride levels: lower blood glucose and triglyceride levels
